{
  "source": "paper PMC12172035",
  "about": "“The Thienopyrimidinone Gamhépathiopine Targets the QO Site of Plasmodium falciparum Cytochrome b” (ACS Infectious Diseases, 2025)",
  "molecular_target": "T1, cytochrome b (Plasmodium falciparum, UniProt Q02768)",
  "T1 construct": "gene MT-CYB; native complex III in mitochondrial membrane fraction of P. falciparum 3D7 lysate; with complex III (cytochrome c1, Rieske iron-sulfur protein)",
  "T1 sequence (Q02768 1-376)": "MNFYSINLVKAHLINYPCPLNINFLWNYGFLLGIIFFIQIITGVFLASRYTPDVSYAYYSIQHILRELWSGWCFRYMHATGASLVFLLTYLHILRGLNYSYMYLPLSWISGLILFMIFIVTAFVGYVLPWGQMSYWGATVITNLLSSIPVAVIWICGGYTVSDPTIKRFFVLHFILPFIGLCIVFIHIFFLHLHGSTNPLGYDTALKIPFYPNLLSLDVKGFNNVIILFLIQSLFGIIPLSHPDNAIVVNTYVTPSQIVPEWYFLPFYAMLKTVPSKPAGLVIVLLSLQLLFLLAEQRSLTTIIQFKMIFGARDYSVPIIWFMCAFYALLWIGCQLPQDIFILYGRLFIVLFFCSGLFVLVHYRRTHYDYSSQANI",
  "assay": "complex III activity assay (decylubiquinol-driven cytochrome c reduction, […] nm) in P. falciparum membrane-enriched lysate; supported by resistance mutations in cytochrome b",
  "type": "cell-based",
  "data": [
    {"smiles": "Cc1ccc(-c2cc3nc(NC(C)(C)C)[nH]c(=O)c3s2)cc1", "note": "[gamhépathiopine]", "values": [
      {"measurement": "inhibition at 20 µM", "result": "> 93", "unit": "%"}
    ]}
  ]
}
